Assay results: patent publication US20240268395A1, “ANTIFUNGAL PROTEIN COMPOSITION” (GEAENZYMES CO., priority 2019, published 2024)
Ends that are not written are not given here.

How the values were obtained:
Aspergillus niger = test: Agar dilution assay, inhibition of mycelial growth from spores; assay type: cell-based; details: fused to carrier solubility protein
Excerpt: FIG. 8. Agar dilution assay to assess the antifungal activity of the peptide-protein fusion SEQ ID NO: 1-MBP against Aspergillus niger. Left, representative images of agar dilution assays performed with serial dilutions of antifungal peptide-MBP fusions added to agar before solidification. Assays tested for the inhibition of mycelial growth from A. niger spores. Protein storage buffer was used as a negative control for growth inhibition, and Zeocin was used as positive control. Right, IC50 values for the peptide-protein fusion SEQ ID NO: 1-MBP. Aggregated results from up to three independent experiments were used to interpolate IC50 from the fitted curve.
FIGS. 9A-9B. Agar dilution assay comparing the antifungal activity of the peptide-protein fusions SEQ ID NO: 28-MBP and SEQ ID NO: 29-MBP against Aspergillus niger. FIG. 9A: Representative images of agar dilution assays performed with serial dilutions of antifungal peptide-MBP fusions added to agar before solidification. Assays tested for the inhibition of mycelial growth from A. niger spores. […]
To further test the versatility of antifungal peptides, these were genetically fused to a variety of different carrier solubility proteins, and their antifungal activity tested. […] Mycelium length was then estimated and analyzed (FIGS. 3, 4, and 5). […]

[1] = system: Trichoderma reesei, Fusarium oxysporum, Rhizopus oligosporum, Aspergillus niger and two environmental isolates; test: Fungal inhibition in agar plates containing embedded antifungal peptides; assay type: cell-based; details: 150 μg/ml, without carrier protein
Description: FIG. 1. Fungal inhibition in agar plates containing a composition comprising Antifungal Peptide SEQ ID NO: 1 after 2 days at 30° C. Fungal strains inoculated in the plate: 1: Trichoderma reesei; 2: Fusarium oxysporum; 3: Rhizopus oligosporum; 4: household environmental isolated; 5: Aspergillus niger; 6: bread contamination environmental isolate. Panel A: 150 μg/ml of peptidic antifungal composition with six histidine amino-terminal residues. Panel B: 150 μg/ml of peptidic antifungal composition with six histidine amino-terminal residues pre-treated for 10 minutes at 90° C. Panel C: 175 μg/ml of peptidic antifungal composition fused to a carrier protein. Panel D: negative control without peptidic antifungal composition.
Antifungal peptide having an amino acid sequence as set forth in SEQ ID NO: 1 (Table 1) was genetically fused to 6 amino-terminal histidine residues, expressed and produced in a recombinant manner in Escherichia coli, and after cell lysis, peptide purified using immobilized metal affinity chromatography (IMAC) with nickel resin. A second variant of antifungal peptide having an amino acid sequence as set forth in SEQ ID NO: 1 was also generated, fusing the antifungal peptide to a carrier protein. […] Fungal inhibition was then assessed in agar plates containing embedded antifungal peptides, incubating 2 days at 30° C. […]

| Sequence | potency at sub-MIC concentrations (reflected in the IC50), comparison of the three peptides (Aspergillus niger) | fungal growth in agar plates compared with control ([1]; six histidine amino-terminal residues, 2 days at 30° C.) | activity after pre-incubation at 90° C. (thermostability) ([1]; pre-treated for 10 minutes at 90° C.) |
| --- | --- | --- | --- |
| KRCGSQAGCPNGHCCSQYGFCGFGPEYCGRG [SEQ ID NO: 29] | highest potency |  |  |
| VGECVRGRCPSGMCCSQFGYCGKGPKYCGR (not fully specified (N-terminus); cysteine pairing not given here) [SEQ ID NO: 1, tested genetically fused to 6 amino-terminal histidine residues, produced recombinantly in Escherichia coli] |  | impacts the growth of all fungi when compared with the control condition, although to a lesser extent with the environmental fungal isolates | does not impair its activity |
